Legend:
[1] = test system: trypanosomes; experiment: inhibition of the growth of trypanosomes by free daunomycin; assay type: cell-based, Trypanosoma brucei brucei
[2] = assay type: physicochemical
Description: In addition, the simplicity of the synthesis of the bdellosomes resulting from the monomolecular structure of the particle is particularly noteworthy.

## COc1cccc2c1C(=O)c1c(O)c3c(c(O)c1C2=O)C[C@@](O)(C(C)=O)C[C@@H]3O[C@H]1C[C@H](N)[C@H](O)[C@H](C)O1 [daunomycin]
[1]
  concentration in the medium causing inhibition of the growth of trypanosomes: ≥ 10^−7 mol

## polyvinyl(te/o-alanylpolylactide)ate[a=4000, b=100] [bdellosomes]
[2]
  Stability: high
